Experimental data from paper PMC9276671, “A first-in-human Phase I dose-escalation trial of the novel therapeutic peptide, ALM201, demonstrates a favourable safety profile in unselected patients with ovarian cancer and other advanced solid tumours” (British Journal of Cancer, 2022).
No end group written: not given here.

Assay: Plasma pharmacokinetics of ALM201 in Phase I patients (validated LC-MS/MS, Phoenix WinNonlin)
Details: for AUC(0-t): AUC0-t; for AUC(0-t) / Cmax: Gmean (CV); for level at 0.25 h: day 1 cycle 1, 0.25 h after dosing; for level at 0.75 h: day 1 cycle 1, 0.75 h after dosing; for Tmax: median
[1] = cycle 1, excluding patient 03.012
[2] = human, plasma, sc, 10 mg, 10 mg SC, day 1 cycle 1, n = 1, plasma LC-MS/MS
[3] = human, plasma, sc, 10 mg, 10 mg SC, day 3 cycle 1, n = 1, plasma LC-MS/MS
[4] = human, plasma, sc, 10 mg, 10 mg SC, day 18 cycle 1, n = 1, plasma LC-MS/MS
[5] = human, plasma, sc, 10 mg, 10 mg SC, day 18 cycle 2, n = 1, plasma LC-MS/MS
[6] = human, plasma, sc, 10 mg, 10 mg SC, day 18 cycle 4, n = 1, plasma LC-MS/MS
[7] = human, plasma, sc, 10 mg, 10 mg SC, day 18 cycle 6, n = 1, plasma LC-MS/MS
[8] = human, plasma, sc, 10 mg, Plasma concentration, geometric mean (CV%), 10 mg SC, n = 1, LC-MS/MS
[9] = human, plasma, sc, 20 mg, 20 mg SC, day 1 cycle 1, n = 1, plasma LC-MS/MS
[10] = human, plasma, sc, 20 mg, 20 mg SC, day 3 cycle 1, n = 1, plasma LC-MS/MS
[11] = human, plasma, sc, 20 mg, 20 mg SC, day 18 cycle 1, n = 1, plasma LC-MS/MS
[12] = human, plasma, sc, 20 mg, 20 mg SC, day 18 cycle 2, n = 1, plasma LC-MS/MS
[13] = human, plasma, sc, 20 mg, Plasma concentration, geometric mean (CV%), 20 mg SC, n = 1, LC-MS/MS

IRQQPRDPPTETLELEVSPDPAS [ALM201]
Plasma concentration, geometric mean (CV%) (10 mg SC, day 1 cycle 1, 4 h after dosing, n = 1, LC-MS/MS): NQ (not quantifiable (less than assay limit of quantification of 100 ng/mL))
Plasma concentration, geometric mean (CV%) (10 mg SC, day 1 cycle 1, 5 h after dosing, n = 1, LC-MS/MS): NQ (not quantifiable (less than assay limit of quantification of 100 ng/mL))
Plasma concentration, geometric mean (CV%) (10 mg SC, day 1 cycle 1, 6 h after dosing, n = 1, LC-MS/MS): NQ (not quantifiable (less than assay limit of quantification of 100 ng/mL))
Plasma concentration, geometric mean (CV%) (10 mg SC, day 1 cycle 1, 22 h after dosing, n = 1, LC-MS/MS): NQ (not quantifiable (less than assay limit of quantification of 100 ng/mL))
Plasma concentration, geometric mean (CV%) (10 mg SC, day 3 cycle 1, 5 h after dosing, n = 1, LC-MS/MS): NQ (not quantifiable (less than assay limit of quantification of 100 ng/mL))
Plasma concentration, geometric mean (CV%) (10 mg SC, day 18 cycle 1, 5 h after dosing, n = 1, LC-MS/MS): NQ (not quantifiable (less than assay limit of quantification of 100 ng/mL))
Plasma concentration, geometric mean (CV%) (20 mg SC, day 1 cycle 1, 4 h after dosing, n = 1, LC-MS/MS): NQ (not quantifiable (less than assay limit of quantification of 100 ng/mL))
Plasma concentration, geometric mean (CV%) (20 mg SC, day 1 cycle 1, 5 h after dosing, n = 1, LC-MS/MS): NQ (not quantifiable (less than assay limit of quantification of 100 ng/mL))
Plasma concentration, geometric mean (CV%) (20 mg SC, day 1 cycle 1, 6 h after dosing, n = 1, LC-MS/MS): NQ (not quantifiable (less than assay limit of quantification of 100 ng/mL))
Plasma concentration, geometric mean (CV%) (20 mg SC, day 1 cycle 1, 22 h after dosing, n = 1, LC-MS/MS): NQ (not quantifiable (less than assay limit of quantification of 100 ng/mL))
Plasma concentration, geometric mean (CV%) (20 mg SC, day 3 cycle 1, 5 h after dosing, n = 1, LC-MS/MS): NQ (not quantifiable (less than assay limit of quantification of 100 ng/mL))
Plasma concentration, geometric mean (CV%) (20 mg SC, day 18 cycle 1, 5 h after dosing, n = 1, LC-MS/MS): NQ (not quantifiable (less than assay limit of quantification of 100 ng/mL))
Tmax, median (20 mg SC, day 18 cycle 2, n = 1, plasma LC-MS/MS): 1 h
Plasma concentration, geometric mean (CV%) (40 mg SC, day 1 cycle 1, 6 h after dosing, n = 1, LC-MS/MS): NQ (not quantifiable (less than assay limit of quantification of 100 ng/mL))
Plasma concentration, geometric mean (CV%) (40 mg SC, day 1 cycle 1, 22 h after dosing, n = 1, LC-MS/MS): NQ (not quantifiable (less than assay limit of quantification of 100 ng/mL))
Cmax, Gmean (CV) (40 mg SC, day 18 cycle 2, n = 1, plasma LC-MS/MS): 583 ng/mL
Plasma concentration, geometric mean (CV%) (80 mg SC, day 1 cycle 1, 22 h after dosing, n = 3, LC-MS/MS): NQ (not quantifiable (less than assay limit of quantification of 100 ng/mL))
Tmax, median (80 mg SC, day 3 cycle 1, n = 3, plasma LC-MS/MS): 1.5 h
Plasma concentration, geometric mean (CV%) (100 mg SC, day 1 cycle 1, 22 h after dosing, n = 4, LC-MS/MS): NQ (not quantifiable (less than assay limit of quantification of 100 ng/mL))
Plasma concentration, geometric mean (CV%) (160 mg SC, day 1 cycle 1, 22 h after dosing, n = 3, LC-MS/MS): NQ (not quantifiable (less than assay limit of quantification of 100 ng/mL))
Tmax, median (160 mg SC, day 3 cycle 1, n = 3, plasma LC-MS/MS): 1.52 h
Tmax, median (160 mg SC, day 18 cycle 1, n = 3, plasma LC-MS/MS): 1.5 h
Plasma concentration, geometric mean (CV%) (200 mg SC, day 1 cycle 1, 22 h after dosing, n = 4, LC-MS/MS): NQ (not quantifiable (less than assay limit of quantification of 100 ng/mL))
AUC0-t, Gmean (CV) (200 mg SC, day 18 cycle 2, n = 2, CV not calculated, plasma LC-MS/MS): 5680 ng·h/mL
Plasma concentration, geometric mean (CV%) (300 mg SC, day 1 cycle 1, 22 h after dosing, n = 3, LC-MS/MS): NQ (not quantifiable (less than assay limit of quantification of 100 ng/mL))
AUC0-t, Gmean (CV) (300 mg SC, day 18 cycle 1, n = 3, plasma LC-MS/MS): 12,100 (6) ng.h/mL
Tmax, median (300 mg SC, day 18 cycle 2, n = 3, plasma LC-MS/MS): 2 h
Day 18:day 1 AUC0-t ratio, mean ± SD (cycle 1, all patients): 1.27 ± 1.32
Day 18:day 1 Cmax ratio, mean ± SD (cycle 1, all patients): 1.25 ± 0.97
Day 18:day 1 AUC0-t ratio, mean ± SD [1]: 0.95 ± 0.26
Day 18:day 1 Cmax ratio, mean ± SD [1]: 1.03 ± 0.39
Half-life (human, plasma, sc): ~1.5 h
AUC(0-t) [2]: 485 ng·h/mL
AUC(0-t) [3]: 868 ng·h/mL
AUC(0-t) [4]: 817 ng·h/mL
AUC(0-t) [5]: 702 ng·h/mL
AUC(0-t) [6]: 476 ng·h/mL
AUC(0-t) [7]: 1040 ng·h/mL
Cmax [2]: 200 ng/mL
Cmax [3]: 406 ng/mL
Cmax [4]: 352 ng/mL
Cmax [5]: 288 ng/mL
Cmax [6]: 193 ng/mL
Cmax [7]: 470 ng/mL
level at 0.25 h [8]: 106 ng/mL
level at 0.75 h [8]: 150 ng/mL
level at 1.5 h (human, plasma, sc, 10 mg, Plasma concentration, geometric mean (CV%), 10 mg SC, day 1 cycle 1, 1.5 h after dosing, n = 1, LC-MS/MS): 200 ng/mL
level at 2 h (human, plasma, sc, 10 mg, Plasma concentration, geometric mean (CV%), 10 mg SC, day 1 cycle 1, 2 h after dosing, n = 1, LC-MS/MS): 199 ng/mL
level at 3 h (human, plasma, sc, 10 mg, Plasma concentration, geometric mean (CV%), 10 mg SC, day 1 cycle 1, 3 h after dosing, n = 1, LC-MS/MS): 153 ng/mL
level at 0.5 h (human, plasma, sc, 10 mg, Plasma concentration, geometric mean (CV%), 10 mg SC, day 3 cycle 1, 0.5 h after dosing, n = 1, LC-MS/MS): 406 ng/mL
level at 1 h (human, plasma, sc, 10 mg, Plasma concentration, geometric mean (CV%), 10 mg SC, day 3 cycle 1, 1 h after dosing, n = 1, LC-MS/MS): 325 ng/mL
level at 1.5 h (human, plasma, sc, 10 mg, Plasma concentration, geometric mean (CV%), 10 mg SC, day 3 cycle 1, 1.5 h after dosing, n = 1, LC-MS/MS): 294 ng/mL
level at 2 h (human, plasma, sc, 10 mg, Plasma concentration, geometric mean (CV%), 10 mg SC, day 3 cycle 1, 2 h after dosing, n = 1, LC-MS/MS): 242 ng/mL
level at 3.5 h (human, plasma, sc, 10 mg, Plasma concentration, geometric mean (CV%), 10 mg SC, day 3 cycle 1, 3.5 h after dosing, n = 1, LC-MS/MS): 127 ng/mL
level at 0.5 h (human, plasma, sc, 10 mg, Plasma concentration, geometric mean (CV%), 10 mg SC, day 18 cycle 1, 0.5 h after dosing, n = 1, LC-MS/MS): 188 ng/mL
level at 1 h (human, plasma, sc, 10 mg, Plasma concentration, geometric mean (CV%), 10 mg SC, day 18 cycle 1, 1 h after dosing, n = 1, LC-MS/MS): 283 ng/mL
level at 1.5 h (human, plasma, sc, 10 mg, Plasma concentration, geometric mean (CV%), 10 mg SC, day 18 cycle 1, 1.5 h after dosing, n = 1, LC-MS/MS): 352 ng/mL
level at 2 h (human, plasma, sc, 10 mg, Plasma concentration, geometric mean (CV%), 10 mg SC, day 18 cycle 1, 2 h after dosing, n = 1, LC-MS/MS): 325 ng/mL
level at 3.5 h (human, plasma, sc, 10 mg, Plasma concentration, geometric mean (CV%), 10 mg SC, day 18 cycle 1, 3.5 h after dosing, n = 1, LC-MS/MS): 113 ng/mL
level at 0.5 h (human, plasma, sc, 10 mg, Plasma concentration, geometric mean (CV%), 10 mg SC, day 18 cycle 2, 0.5 h after dosing, n = 1, LC-MS/MS): 158 ng/mL
level at 1 h (human, plasma, sc, 10 mg, Plasma concentration, geometric mean (CV%), 10 mg SC, day 18 cycle 2, 1 h after dosing, n = 1, LC-MS/MS): 193 ng/mL
level at 1.5 h (human, plasma, sc, 10 mg, Plasma concentration, geometric mean (CV%), 10 mg SC, day 18 cycle 2, 1.5 h after dosing, n = 1, LC-MS/MS): 242 ng/mL
level at 2 h (human, plasma, sc, 10 mg, Plasma concentration, geometric mean (CV%), 10 mg SC, day 18 cycle 2, 2 h after dosing, n = 1, LC-MS/MS): 288 ng/mL
level at 3.5 h (human, plasma, sc, 10 mg, Plasma concentration, geometric mean (CV%), 10 mg SC, day 18 cycle 2, 3.5 h after dosing, n = 1, LC-MS/MS): 161 ng/mL
level at 1 h (human, plasma, sc, 10 mg, Plasma concentration, geometric mean (CV%), 10 mg SC, day 18 cycle 4, 1 h after dosing, n = 1, LC-MS/MS): 176 ng/mL
level at 1.5 h (human, plasma, sc, 10 mg, Plasma concentration, geometric mean (CV%), 10 mg SC, day 18 cycle 4, 1.5 h after dosing, n = 1, LC-MS/MS): 193 ng/mL
level at 2 h (human, plasma, sc, 10 mg, Plasma concentration, geometric mean (CV%), 10 mg SC, day 18 cycle 4, 2 h after dosing, n = 1, LC-MS/MS): 171 ng/mL
level at 3.5 h (human, plasma, sc, 10 mg, Plasma concentration, geometric mean (CV%), 10 mg SC, day 18 cycle 4, 3.5 h after dosing, n = 1, LC-MS/MS): 157 ng/mL
level at 0.5 h (human, plasma, sc, 10 mg, Plasma concentration, geometric mean (CV%), 10 mg SC, day 18 cycle 6, 0.5 h after dosing, n = 1, LC-MS/MS): 171 ng/mL
level at 1.5 h (human, plasma, sc, 10 mg, Plasma concentration, geometric mean (CV%), 10 mg SC, day 18 cycle 6, 1.5 h after dosing, n = 1, LC-MS/MS): 470 ng/mL
level at 2 h (human, plasma, sc, 10 mg, Plasma concentration, geometric mean (CV%), 10 mg SC, day 18 cycle 6, 2 h after dosing, n = 1, LC-MS/MS): 403 ng/mL
level at 3.5 h (human, plasma, sc, 10 mg, Plasma concentration, geometric mean (CV%), 10 mg SC, day 18 cycle 6, 3.5 h after dosing, n = 1, LC-MS/MS): 179 ng/mL
Tmax [2]: 1.45 h
Tmax [3]: 0.5 h
Tmax [4]: 1.58 h
Tmax [5]: 2 h
Tmax [6]: 1.53 h
Tmax [7]: 1.85 h
AUC(0-t) [9]: 1040 ng·h/mL
AUC(0-t) [10]: 1160 ng·h/mL
AUC(0-t) [11]: 718 ng·h/mL
AUC(0-t) [12]: 1020 ng·h/mL
Cmax [9]: 542 ng/mL
Cmax [10]: 614 ng/mL
Cmax [11]: 319 ng/mL
Cmax [12]: 394 ng/mL
level at 0.25 h [13]: 136 ng/mL
level at 0.75 h [13]: 368 ng/mL
